Test results: paper PMC9112407 (RSC Advances, 2022)

Legend:
[1] = tested on: MCF-7; assay: In vitro anti-proliferative activity, MTT assay; type: cell-based; conditions: Homo sapiens, MCF7, 48 h, read-out: In vitro IC50 (nM) Mean ± SD MCF-7
[2] = molecular target: CDK2/cyclin A2 (Homo sapiens, UniProt P24941); assay: CDK2/cyclin A2 Kinase-Glo Plus luminescence kinase assay

| SMILES | IC50 [1] [nM] | IC50 [2] [nM] |
| --- | --- | --- |
| Cc1ccc(NCC(=O)n2ncc3c(=N)n(N)cnc32)cc1 [Compound 4, 1-(5-Amino-4-imino-4,5-dihydro-1H-pyrazolo[3,4-d]pyrimidin-1-yl)-2-(p-tolylamino)ethan-1-one] | 79 ± 1.4 |  |
| Cc1ccc(NCC(=O)n2ncc3c(=N)n(N[C@@H]4O[C@H](CO)[C@@H](O)[C@H](O)[C@H]4O)cnc32)cc1 [Compound 5, 1-(4-Imino-5-((β-D-glucopyranosyl)amino)-4,5-dihydro-1H-pyrazolo[3,4-d]pyrimidin-1-yl)-2-(p-tolylamino)ethan-1-one] | 88 ± 0.99 | 1020 ± 57 |
| Cc1ccc(NCC(=O)n2ncc3c(=N)n(N[C@@H]4OC[C@@H](O)[C@H](O)[C@H]4O)cnc32)cc1 [Compound 6, 1-(4-Imino-5-((β-D-xylopyranosyl)amino)-4,5-dihydro-1H-pyrazolo[3,4-d]pyrimidin-1-yl)-2-(p-tolylamino)ethan-1-one] | 552 ± 23 |  |
| Cc1ccc(NCC(=O)n2ncc3c2ncn2[nH]c(=S)nc32)cc1 [Compound 7, 1-(2-Thioxo-2,3-dihydro-7H-pyrazolo[4,3-e][1,2,4]triazolo[1,5-c]pyrimidin-7-yl)-2-(p-tolylamino)ethan-1-one] | 951 ± 33 |  |
| Cc1ccc(NCC(=O)n2ncc3c2ncn2nc(SCC#N)nc32)cc1 [Compound 8, 2-((7-(p-Tolylglycyl)-7H-pyrazolo[4,3-e][1,2,4]triazolo[1,5-c]pyrimidin-2-yl)thio)acetonitrile] | 53 ± 2.7 | 589 ± 33 |
| COC(CSc1nc2c3cnn(C(=O)CNc4ccc(C)cc4)c3ncn2n1)OC [Compound 9, 1-(2-((2,2-Dimethoxyethyl)thio)-7H-pyrazolo[4,3-e][1,2,4]triazolo[1,5-c]pyrimidin-7-yl)-2-(p-tolylamino)ethan-1-one] | 95 ± 4 |  |
| Cc1ccc(NCC(=O)n2ncc3c2ncn2nc(SCC(O)CO)nc32)cc1 (stereo not shown) [Compound 10, 1-{2-[(2,3-Dihydroxypropyl)thio]-7H-pyrazolo[4,3-e][1,2,4]triazolo[1,5-c]pyrimidin-7-yl}-2-(p-tolylamino)ethan-1-one] | 53 ± 2.1 | 336 ± 19 |
| CC(=O)OCC(CSc1nc2c3cnn(C(=O)CNc4ccc(C)cc4)c3ncn2n1)OC(C)=O (stereo not shown) [Compound 11, 3-((7-(p-Tolylglycyl)-7H-pyrazolo[4,3-e][1,2,4]triazolo[1,5-c]pyrimidin-2-yl)thio)propane-1,2-diyl diacetate] | 91 ± 4.2 | 3650 ± 203 |
| Cc1ccc(NCC(=O)n2ncc3c2ncn2nc(SCCO)nc32)cc1 [Compound 12, 1-(2-((2-Hydroxyethyl)thio)-7H-pyrazolo[4,3-e][1,2,4]triazolo[1,5-c]pyrimidin-7-yl)-2-(p-tolylamino)ethan-1-one] | 97 ± 1.7 |  |
| CC(=O)OCCSc1nc2c3cnn(C(=O)CNc4ccc(C)cc4)c3ncn2n1 [Compound 13, 2-((7-(p-Tolylglycyl)-7H-pyrazolo[4,3-e][1,2,4]triazolo[1,5-c]pyrimidin-2-yl)thio)ethyl acetate] | 59 ± 0.94 | 81 ± 4 |
| CNC(=O)c1cc(Oc2ccc(NC(=O)Nc3ccc(Cl)c(C(F)(F)F)c3)cc2)ccn1 [Sorafenib, reference compound] | 144 ± 0.47 |  |
